Data as given in patent US10253039B2, “Inhibitors of bacterial DNA gyrase with efficacy against gram-negative bacteria” (priority 2014, dated 2019).
≈ marks a conversion by molar mass, not a printed value.

test system: E. coli BW25113; assay: MIC, microdilution in 96-well plates; format: cell-based; details: Escherichia coli, BW25113, E. coli BW25113; read-out: MIC
Outline: (§1)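 Each of the 20 strains is tested in LB at a 1:10000 dilution of a growing subculture. Compound is titrated 2-fold in three replicates; a DMSO column serves as vehicle control. After shaking incubation at 37° C. for 16-18 hours, MIC is taken as the lowest clear concentration.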

| Compound | MIC [µg/mL] |
| --- | --- |
| CC(=O)c1cc(S(=O)(=O)N[C@@H]2CCN(Cc3ccc(OC4CC4)cc3)C2)ccc1C [Compound 133] | > 8 |
| CSc1ccc(CN2CC[C@@H](NS(=O)(=O)c3cccc(OC(F)(F)F)c3)C2)cc1 [Compound 176] | > 8 |
| O=S(=O)(N[C@@H]1CCN(Cc2ccc(OC3CC3)cc2)C1)c1cncc(F)c1 [Compound 154] | > 8 |
| CC(C)Oc1ccc(CN2CC[C@@H](NS(=O)(=O)c3cc(C(F)(F)F)cc(C(F)(F)F)c3)C2)cc1 [Compound 135] | > 8 |
| CC(C)Oc1ccc(CN2CC[C@@H](NS(=O)(=O)c3ccc(C#N)nc3)C2)cc1 [Compound 138] | > 8 |
| O=S(=O)(N[C@@H]1CCN(Cc2ccc(-c3ccccc3)cc2)C1)c1ccc(Cl)cn1 [Compound 141] | > 8 |

test system: Edwardsiella tarda; assay: MIC, microdilution in 96-well plates; format: cell-based; details: not given
Outline: as §1

| Compound | MIC [µg/mL] |
| --- | --- |
| CC(=O)c1cc(S(=O)(=O)N[C@@H]2CCN(Cc3ccc(OC4CC4)cc3)C2)ccc1C [Compound 133] | > 8 |
| CSc1ccc(CN2CC[C@@H](NS(=O)(=O)c3cccc(OC(F)(F)F)c3)C2)cc1 [Compound 176] | > 8 |
| O=S(=O)(N[C@@H]1CCN(Cc2ccc(OC3CC3)cc2)C1)c1cncc(F)c1 [Compound 154] | > 8 |
| CC(C)Oc1ccc(CN2CC[C@@H](NS(=O)(=O)c3cc(C(F)(F)F)cc(C(F)(F)F)c3)C2)cc1 [Compound 135] | > 8 |
| CC(C)Oc1ccc(CN2CC[C@@H](NS(=O)(=O)c3ccc(C#N)nc3)C2)cc1 [Compound 138] | > 8 |
| O=S(=O)(N[C@@H]1CCN(Cc2ccc(-c3ccccc3)cc2)C1)c1ccc(Cl)cn1 [Compound 141] | > 8 |

test system: E. coli JW5503 (deltolC); assay: MIC, 20-strain panel; format: cell-based; details: Escherichia coli, E. coli JW5503 (deltolC)
Outline: as §1

| Compound | MIC [µg/mL] |
| --- | --- |
| CC(=O)c1cc(S(=O)(=O)N[C@@H]2CCN(Cc3ccc(OC4CC4)cc3)C2)ccc1C [Compound 133] | > 8 |
| CSc1ccc(CN2CC[C@@H](NS(=O)(=O)c3cccc(OC(F)(F)F)c3)C2)cc1 [Compound 176] | 8 (≈ 17.9 µM) |
| O=S(=O)(N[C@@H]1CCN(Cc2ccc(OC3CC3)cc2)C1)c1cncc(F)c1 [Compound 154] | > 8 |
| CC(C)Oc1ccc(CN2CC[C@@H](NS(=O)(=O)c3cc(C(F)(F)F)cc(C(F)(F)F)c3)C2)cc1 [Compound 135] | 8 (≈ 15.7 µM) |
| CC(C)Oc1ccc(CN2CC[C@@H](NS(=O)(=O)c3ccc(C#N)nc3)C2)cc1 [Compound 138] | > 8 |
| O=S(=O)(N[C@@H]1CCN(Cc2ccc(-c3ccccc3)cc2)C1)c1ccc(Cl)cn1 [Compound 141] | ~8 (≈ 18.7 µM) |

test system: E. coli MG1655; assay: MIC, 20-strain panel; format: cell-based; details: Escherichia coli, MG1655, E. coli MG1655; read-out: MIC
Outline: as §1

| Compound | MIC [µg/mL] |
| --- | --- |
| CC(=O)c1cc(S(=O)(=O)N[C@@H]2CCN(Cc3ccc(OC4CC4)cc3)C2)ccc1C [Compound 133] | > 8 |
| CSc1ccc(CN2CC[C@@H](NS(=O)(=O)c3cccc(OC(F)(F)F)c3)C2)cc1 [Compound 176] | > 8 |
| O=S(=O)(N[C@@H]1CCN(Cc2ccc(OC3CC3)cc2)C1)c1cncc(F)c1 [Compound 154] | > 8 |
| CC(C)Oc1ccc(CN2CC[C@@H](NS(=O)(=O)c3cc(C(F)(F)F)cc(C(F)(F)F)c3)C2)cc1 [Compound 135] | > 8 |
| CC(C)Oc1ccc(CN2CC[C@@H](NS(=O)(=O)c3ccc(C#N)nc3)C2)cc1 [Compound 138] | > 8 |
| O=S(=O)(N[C@@H]1CCN(Cc2ccc(-c3ccccc3)cc2)C1)c1ccc(Cl)cn1 [Compound 141] | > 8 |

test system: Klebsiella pneumoniae subsp. pneumoniae; assay: MIC, 20-strain panel; format: cell-based; details: Klebsiella pneumoniae subsp. pneumoniae
Outline: as §1

| Compound | MIC [µg/mL] |
| --- | --- |
| CC(=O)c1cc(S(=O)(=O)N[C@@H]2CCN(Cc3ccc(OC4CC4)cc3)C2)ccc1C [Compound 133] | > 8 |
| CSc1ccc(CN2CC[C@@H](NS(=O)(=O)c3cccc(OC(F)(F)F)c3)C2)cc1 [Compound 176] | > 8 |
| O=S(=O)(N[C@@H]1CCN(Cc2ccc(OC3CC3)cc2)C1)c1cncc(F)c1 [Compound 154] | > 8 |
| CC(C)Oc1ccc(CN2CC[C@@H](NS(=O)(=O)c3cc(C(F)(F)F)cc(C(F)(F)F)c3)C2)cc1 [Compound 135] | > 8 |
| CC(C)Oc1ccc(CN2CC[C@@H](NS(=O)(=O)c3ccc(C#N)nc3)C2)cc1 [Compound 138] | > 8 |
| O=S(=O)(N[C@@H]1CCN(Cc2ccc(-c3ccccc3)cc2)C1)c1ccc(Cl)cn1 [Compound 141] | > 8 |

test system: Salmonella enterica subsp. enterica typhimurium; assay: MIC, 20-strain panel; format: cell-based; details: Salmonella enterica subsp. enterica Typhimurium
Outline: as §1

| Compound | MIC [µg/mL] |
| --- | --- |
| CC(=O)c1cc(S(=O)(=O)N[C@@H]2CCN(Cc3ccc(OC4CC4)cc3)C2)ccc1C [Compound 133] | > 8 |
| CSc1ccc(CN2CC[C@@H](NS(=O)(=O)c3cccc(OC(F)(F)F)c3)C2)cc1 [Compound 176] | > 8 |
| O=S(=O)(N[C@@H]1CCN(Cc2ccc(OC3CC3)cc2)C1)c1cncc(F)c1 [Compound 154] | > 8 |
| CC(C)Oc1ccc(CN2CC[C@@H](NS(=O)(=O)c3cc(C(F)(F)F)cc(C(F)(F)F)c3)C2)cc1 [Compound 135] | > 8 |
| CC(C)Oc1ccc(CN2CC[C@@H](NS(=O)(=O)c3ccc(C#N)nc3)C2)cc1 [Compound 138] | > 8 |
| O=S(=O)(N[C@@H]1CCN(Cc2ccc(-c3ccccc3)cc2)C1)c1ccc(Cl)cn1 [Compound 141] | > 8 |

test system: Shigella flexneri; assay: MIC, 20-strain panel; format: cell-based; details: not given
Outline: as §1

| Compound | MIC [µg/mL] |
| --- | --- |
| CC(=O)c1cc(S(=O)(=O)N[C@@H]2CCN(Cc3ccc(OC4CC4)cc3)C2)ccc1C [Compound 133] | > 8 |
| CSc1ccc(CN2CC[C@@H](NS(=O)(=O)c3cccc(OC(F)(F)F)c3)C2)cc1 [Compound 176] | > 8 |
| O=S(=O)(N[C@@H]1CCN(Cc2ccc(OC3CC3)cc2)C1)c1cncc(F)c1 [Compound 154] | > 8 |
| CC(C)Oc1ccc(CN2CC[C@@H](NS(=O)(=O)c3cc(C(F)(F)F)cc(C(F)(F)F)c3)C2)cc1 [Compound 135] | > 8 |
| CC(C)Oc1ccc(CN2CC[C@@H](NS(=O)(=O)c3ccc(C#N)nc3)C2)cc1 [Compound 138] | > 8 |
| O=S(=O)(N[C@@H]1CCN(Cc2ccc(-c3ccccc3)cc2)C1)c1ccc(Cl)cn1 [Compound 141] | > 8 |

test system: Staphylococcus aureus subsp. aureus; assay: MIC, 20-strain panel; format: cell-based; details: Staphylococcus aureus subsp. aureus, read-out: MIC
Outline: as §1

| Compound | MIC [µg/mL] |
| --- | --- |
| CC(=O)c1cc(S(=O)(=O)N[C@@H]2CCN(Cc3ccc(OC4CC4)cc3)C2)ccc1C [Compound 133] | > 8 |
| CSc1ccc(CN2CC[C@@H](NS(=O)(=O)c3cccc(OC(F)(F)F)c3)C2)cc1 [Compound 176] | > 8 |
| O=S(=O)(N[C@@H]1CCN(Cc2ccc(OC3CC3)cc2)C1)c1cncc(F)c1 [Compound 154] | > 8 |
| CC(C)Oc1ccc(CN2CC[C@@H](NS(=O)(=O)c3cc(C(F)(F)F)cc(C(F)(F)F)c3)C2)cc1 [Compound 135] | > 8 |
| CC(C)Oc1ccc(CN2CC[C@@H](NS(=O)(=O)c3ccc(C#N)nc3)C2)cc1 [Compound 138] | > 8 |
| O=S(=O)(N[C@@H]1CCN(Cc2ccc(-c3ccccc3)cc2)C1)c1ccc(Cl)cn1 [Compound 141] | > 8 |

test system: Staphylococcus epidermidis; assay: MIC, 20-strain panel; format: cell-based; details: not given
Outline: as §1

| Compound | MIC [µg/mL] |
| --- | --- |
| CC(=O)c1cc(S(=O)(=O)N[C@@H]2CCN(Cc3ccc(OC4CC4)cc3)C2)ccc1C [Compound 133] | > 8 |
| CSc1ccc(CN2CC[C@@H](NS(=O)(=O)c3cccc(OC(F)(F)F)c3)C2)cc1 [Compound 176] | > 8 |
| O=S(=O)(N[C@@H]1CCN(Cc2ccc(OC3CC3)cc2)C1)c1cncc(F)c1 [Compound 154] | > 8 |
| CC(C)Oc1ccc(CN2CC[C@@H](NS(=O)(=O)c3cc(C(F)(F)F)cc(C(F)(F)F)c3)C2)cc1 [Compound 135] | > 8 |
| CC(C)Oc1ccc(CN2CC[C@@H](NS(=O)(=O)c3ccc(C#N)nc3)C2)cc1 [Compound 138] | > 8 |
| O=S(=O)(N[C@@H]1CCN(Cc2ccc(-c3ccccc3)cc2)C1)c1ccc(Cl)cn1 [Compound 141] | > 8 |

test system: Staphylococcus saprophyticus subsp. saprophyticus; assay: MIC, 20-strain panel; format: cell-based; details: not given
Outline: as §1

| Compound | MIC [µg/mL] |
| --- | --- |
| CC(=O)c1cc(S(=O)(=O)N[C@@H]2CCN(Cc3ccc(OC4CC4)cc3)C2)ccc1C [Compound 133] | > 8 |
| CSc1ccc(CN2CC[C@@H](NS(=O)(=O)c3cccc(OC(F)(F)F)c3)C2)cc1 [Compound 176] | > 8 |
| O=S(=O)(N[C@@H]1CCN(Cc2ccc(OC3CC3)cc2)C1)c1cncc(F)c1 [Compound 154] | > 8 |
| CC(C)Oc1ccc(CN2CC[C@@H](NS(=O)(=O)c3cc(C(F)(F)F)cc(C(F)(F)F)c3)C2)cc1 [Compound 135] | > 8 |
| CC(C)Oc1ccc(CN2CC[C@@H](NS(=O)(=O)c3ccc(C#N)nc3)C2)cc1 [Compound 138] | > 8 |
| O=S(=O)(N[C@@H]1CCN(Cc2ccc(-c3ccccc3)cc2)C1)c1ccc(Cl)cn1 [Compound 141] | > 8 |

test system: Streptococcus agalactiae; assay: MIC, 20-strain panel; format: cell-based; details: not given
Outline: as §1

| Compound | MIC [µg/mL] |
| --- | --- |
| CC(=O)c1cc(S(=O)(=O)N[C@@H]2CCN(Cc3ccc(OC4CC4)cc3)C2)ccc1C [Compound 133] | > 8 |
| CSc1ccc(CN2CC[C@@H](NS(=O)(=O)c3cccc(OC(F)(F)F)c3)C2)cc1 [Compound 176] | > 8 |
| O=S(=O)(N[C@@H]1CCN(Cc2ccc(OC3CC3)cc2)C1)c1cncc(F)c1 [Compound 154] | > 8 |
| CC(C)Oc1ccc(CN2CC[C@@H](NS(=O)(=O)c3cc(C(F)(F)F)cc(C(F)(F)F)c3)C2)cc1 [Compound 135] | > 8 |
| CC(C)Oc1ccc(CN2CC[C@@H](NS(=O)(=O)c3ccc(C#N)nc3)C2)cc1 [Compound 138] | > 8 |
| O=S(=O)(N[C@@H]1CCN(Cc2ccc(-c3ccccc3)cc2)C1)c1ccc(Cl)cn1 [Compound 141] | > 8 |

test system: Streptococcus pyogenes; assay: MIC, 20-strain panel; format: cell-based; details: not given
Outline: as §1

| Compound | MIC [µg/mL] |
| --- | --- |
| CC(=O)c1cc(S(=O)(=O)N[C@@H]2CCN(Cc3ccc(OC4CC4)cc3)C2)ccc1C [Compound 133] | > 8 |
| CSc1ccc(CN2CC[C@@H](NS(=O)(=O)c3cccc(OC(F)(F)F)c3)C2)cc1 [Compound 176] | > 8 |
| O=S(=O)(N[C@@H]1CCN(Cc2ccc(OC3CC3)cc2)C1)c1cncc(F)c1 [Compound 154] | > 8 |
| CC(C)Oc1ccc(CN2CC[C@@H](NS(=O)(=O)c3cc(C(F)(F)F)cc(C(F)(F)F)c3)C2)cc1 [Compound 135] | > 8 |
| CC(C)Oc1ccc(CN2CC[C@@H](NS(=O)(=O)c3ccc(C#N)nc3)C2)cc1 [Compound 138] | > 8 |
| O=S(=O)(N[C@@H]1CCN(Cc2ccc(-c3ccccc3)cc2)C1)c1ccc(Cl)cn1 [Compound 141] | > 8 |
